Test system: NF-κB signaling pathway in MT373 tumors
Experiment: MT373 syngeneic sarcoma model: mouse NF-κB signaling pathway profiling panel
Assay type: in vivo
Conditions: for Ccl2 mRNA downregulation / Csf2 mRNA downregulation / Egfr mRNA downregulation / Fas1 mRNA downregulation / Ifnγ mRNA downregulation / Il1α mRNA downregulation / Il1β mRNA downregulation: 150 mg/kg BID×1

Structure (SMILES): CCn1c(C#CCNc2ccccc2)cc2cc(CNC3CCN(C)CC3)ccc21 [Compound 1, 1-Anilino-3-{1-ethyl-5-[(1-methyl-4-piperidylamino)methyl]-1H-indol-2-yl}-2-propyne]
- Ccl5 fold increase over or percent reduction vs vehicle control (150 mg/kg BIDx1, […]): 2.85 ± 0.20 fold or %
- Cd27 fold increase over or percent reduction vs vehicle control (150 mg/kg BIDx1, […]): 1.48 ± 0.16 fold or %
- Cd40 fold increase over or percent reduction vs vehicle control (150 mg/kg BIDx1, […]): 1.78 ± 0.80 fold or %
- Cflar fold increase over or percent reduction vs vehicle control (150 mg/kg BIDx1, […]): 6.22 ± 11.55 fold or %
- Chuk fold increase over or percent reduction vs vehicle control (150 mg/kg BIDx1, […]): 1.16 ± 0.33 fold or %
- Crebbp fold increase over or percent reduction vs vehicle control (150 mg/kg BIDx1, […]): 16.61 ± 5.43 fold or %
- Csf1 fold increase over or percent reduction vs vehicle control (150 mg/kg BIDx1, […]): 1.10 ± 0.10 fold or %
- Csf2 fold increase over or percent reduction vs vehicle control (150 mg/kg BIDx1, […]): 2.00 ± 1.31 fold or %
- Csf3 fold increase over or percent reduction vs vehicle control (150 mg/kg BIDx1, […]): 52.98 ± 22.53 fold or %
- Egfr fold increase over or percent reduction vs vehicle control (150 mg/kg BIDx1, […]): 41.90 ± 8.16 fold or %
- Egr1 fold increase over or percent reduction vs vehicle control (150 mg/kg BIDx1, […]): 54.35 ± 3.91 fold or %
- Eif2ak2 fold increase over or percent reduction vs vehicle control (150 mg/kg BIDx1, […]): 18.72 ± 7.21 fold or %
- Elk1 fold increase over or percent reduction vs vehicle control (150 mg/kg BIDx1, […]): 7.14 ± 8.40 fold or %
- F2r fold increase over or percent reduction vs vehicle control (150 mg/kg BIDx1, […]): 1.01 ± 0.12 fold or %
- Fadd fold increase over or percent reduction vs vehicle control (150 mg/kg BIDx1, […]): 5.68 ± 5.62 fold or %
- Fasl fold increase over or percent reduction vs vehicle control (150 mg/kg BIDx1, […]): 3.17 ± 0.74 fold or %
- Fos fold increase over or percent reduction vs vehicle control (150 mg/kg BIDx1, […]): 44.44 ± 21.93 fold or %
- Hmox1 fold increase over or percent reduction vs vehicle control (150 mg/kg BIDx1, […]): 40.88 ± 33.56 fold or %
- Icam1 fold increase over or percent reduction vs vehicle control (150 mg/kg BIDx1, […]): 1.41 ± 0.25 fold or %
- Ifng fold increase over or percent reduction vs vehicle control (150 mg/kg BIDx1, […]): 3.22 ± 0.99 fold or %
- Ikbkb fold increase over or percent reduction vs vehicle control (150 mg/kg BIDx1, […]): 6.97 ± 8.47 fold or %
- Ikbke fold increase over or percent reduction vs vehicle control (150 mg/kg BIDx1, […]): 0.36 ± 10.26 fold or %
- Ikbkg fold increase over or percent reduction vs vehicle control (150 mg/kg BIDx1, […]): 9.50 ± 15.53 fold or %
- Il1a fold increase over or percent reduction vs vehicle control (150 mg/kg BIDx1, […]): 1.02 ± 0.18 fold or %
- Il1b fold increase over or percent reduction vs vehicle control (150 mg/kg BIDx1, […]): 1.39 ± 0.34 fold or %
- Il1r1 fold increase over or percent reduction vs vehicle control (150 mg/kg BIDx1, […]): 28.14 ± 8.59 fold or %
- Il10 fold increase over or percent reduction vs vehicle control (150 mg/kg BIDx1, […]): 34.39 ± 10.47 fold or %
- Irak1 fold increase over or percent reduction vs vehicle control (150 mg/kg BIDx1, […]): 5.30 ± 10.81 fold or %
- Irak2 fold increase over or percent reduction vs vehicle control (150 mg/kg BIDx1, […]): 1.05 ± 0.12 fold or %
- Irf1 fold increase over or percent reduction vs vehicle control (150 mg/kg BIDx1, […]): 1.11 ± 0.14 fold or %
- Jun fold increase over or percent reduction vs vehicle control (150 mg/kg BIDx1, […]): 26.73 ± 6.02 fold or %
- Lta fold increase over or percent reduction vs vehicle control (150 mg/kg BIDx1, […]): 1.87 ± 0.82 fold or %
- Ltbr fold increase over or percent reduction vs vehicle control (150 mg/kg BIDx1, […]): 1.13 ± 0.10 fold or %
- Map3k1 fold increase over or percent reduction vs vehicle control (150 mg/kg BIDx1, […]): 16.75 ± 8.45 fold or %
- Mapk3 fold increase over or percent reduction vs vehicle control (150 mg/kg BIDx1, […]): 19.93 ± 6.52 fold or %
- Myd88 fold increase over or percent reduction vs vehicle control (150 mg/kg BIDx1, […]): 9.52 ± 8.80 fold or %
- Nfkb1 fold increase over or percent reduction vs vehicle control (150 mg/kg BIDx1, […]): 5.72 ± 2.88 fold or %
- Nfkb2 fold increase over or percent reduction vs vehicle control (150 mg/kg BIDx1, […]): 1.01 ± 0.10 fold or %
- Nfkbia fold increase over or percent reduction vs vehicle control (150 mg/kg BIDx1, […]): 8.21 ± 16.85 fold or %
- Nod1 fold increase over or percent reduction vs vehicle control (150 mg/kg BIDx1, […]): 0.36 ± 14.65 fold or %
- Raf1 fold increase over or percent reduction vs vehicle control (150 mg/kg BIDx1, […]): 7.66 ± 4.64 fold or %
- Rel fold increase over or percent reduction vs vehicle control (150 mg/kg BIDx1, […]): 4.74 ± 2.26 fold or %
- Rela fold increase over or percent reduction vs vehicle control (150 mg/kg BIDx1, […]): 20.75 ± 9.37 fold or %
- Relb fold increase over or percent reduction vs vehicle control (150 mg/kg BIDx1, […]): 14.05 ± 6.91 fold or %
- Ripk1 fold increase over or percent reduction vs vehicle control (150 mg/kg BIDx1, […]): 2.92 ± 15.10 fold or %
- Ripk2 fold increase over or percent reduction vs vehicle control (150 mg/kg BIDx1, […]): 1.11 ± 0.29 fold or %
- Slc20a1 fold increase over or percent reduction vs vehicle control (150 mg/kg BIDx1, […]): 20.53 ± 3.61 fold or %
- Smad3 fold increase over or percent reduction vs vehicle control (150 mg/kg BIDx1, […]): 0.01 ± 11.30 fold or %
- Stat1 fold increase over or percent reduction vs vehicle control (150 mg/kg BIDx1, […]): 1.20 ± 0.33 fold or %
- Tbk1 fold increase over or percent reduction vs vehicle control (150 mg/kg BIDx1, […]): 1.03 ± 0.18 fold or %
- Tlr1 fold increase over or percent reduction vs vehicle control (150 mg/kg BIDx1, […]): 1.33 ± 0.37 fold or %
- Tlr2 fold increase over or percent reduction vs vehicle control (150 mg/kg BIDx1, […]): 1.05 ± 0.08 fold or %
- Tlr3 fold increase over or percent reduction vs vehicle control (150 mg/kg BIDx1, […]): 1.02 ± 0.15 fold or %
- Tlr4 fold increase over or percent reduction vs vehicle control (150 mg/kg BIDx1, […]): 1.04 ± 0.09 fold or %
- Tlr6 fold increase over or percent reduction vs vehicle control (150 mg/kg BIDx1, […]): 0.43 ± 6.189 fold or %
- Tlr9 fold increase over or percent reduction vs vehicle control (150 mg/kg BIDx1, […]): 1.29 ± 0.19 fold or %
- Tnf fold increase over or percent reduction vs vehicle control (150 mg/kg BIDx1, […]): 1.12 ± 0.27 fold or %
- Tnfaip3 fold increase over or percent reduction vs vehicle control (150 mg/kg BIDx1, […]): 11.08 ± 10.07 fold or %
- Tnfrsf1a fold increase over or percent reduction vs vehicle control (150 mg/kg BIDx1, […]): 17.69 ± 12.43 fold or %
- Tnfrsf1b fold increase over or percent reduction vs vehicle control (150 mg/kg BIDx1, […]): 1.08 ± 0.19 fold or %
- Tnfrsf10b fold increase over or percent reduction vs vehicle control (150 mg/kg BIDx1, […]): 1.19 ± 15.33 fold or %
- Tnfsf10 fold increase over or percent reduction vs vehicle control (150 mg/kg BIDx1, […]): 1.18 ± 0.41 fold or %
- Tnfsf14 fold increase over or percent reduction vs vehicle control (150 mg/kg BIDx1, […]): 1.09 ± 0.34 fold or %
- Tollip fold increase over or percent reduction vs vehicle control (150 mg/kg BIDx1, […]): 13.73 ± 7.04 fold or %
- Tradd fold increase over or percent reduction vs vehicle control (150 mg/kg BIDx1, […]): 1.02 ± 0.22 fold or %
- Traf2 fold increase over or percent reduction vs vehicle control (150 mg/kg BIDx1, […]): 1.01 ± 0.11 fold or %
- Traf3 fold increase over or percent reduction vs vehicle control (150 mg/kg BIDx1, […]): 17.66 ± 4.06 fold or %
- Traf5 fold increase over or percent reduction vs vehicle control (150 mg/kg BIDx1, […]): 1.10 ± 0.12 fold or %
- Traf6 fold increase over or percent reduction vs vehicle control (150 mg/kg BIDx1, […]): 12.35 ± 5.34 fold or %
- Zap70 fold increase over or percent reduction vs vehicle control (150 mg/kg BIDx1, […]): 2.40 ± 0.39 fold or %
- Ccl2 mRNA downregulation (24 h): 57.69%
- Csf2 mRNA downregulation (24 h): 61.29%
- Egfr mRNA downregulation (24 h): 28.45%
- Fas1 mRNA downregulation (24 h): 31.85%
- Ifnγ mRNA downregulation (24 h): 35.82%
- Il1α mRNA downregulation (24 h): 13.50%
- Il1β mRNA downregulation (24 h): 63.25%
- Ccl2 mRNA downregulation (48 h): 67.28%
- Csf2 mRNA downregulation (48 h): 62.24%
- Egfr mRNA downregulation (48 h): 24.42%
- Ifnγ mRNA downregulation (48 h): 43.46%
- Il1α mRNA downregulation (48 h): 28.88%
- Il1β mRNA downregulation (48 h): 18.73%
- Ccl2 mRNA downregulation (72 h): 52.53%
- Fas1 mRNA downregulation (72 h): 42.85%
- Ifnγ mRNA downregulation (72 h): 22.04%
- Il1α mRNA downregulation (72 h): 63.60%
- Il1β mRNA downregulation (72 h): 84.09%
- Egfr mRNA downregulation ([…]): 41.90%

Reference: patent US20230049952A1, “METHODS AND COMPOUNDS FOR RESTORING MUTANT P53 FUNCTION” (PMV Pharmaceuticals, Inc., priority 2020, published 2023)
